Measured values as given in ChEMBL document CHEMBL3124745, “4-Bicyclic heteroaryl-piperidine derivatives as potent, orally bioavailable stearoyl-CoA desaturase-1 (SCD1) inhibitors: part 2. Pyridazine-based analogs” (Bioorg Med Chem Lett, 2014).

What was measured:
[1] = Metabolic stability in human liver microsomes assessed as compound remaining measured at 10 mins; format: ADME; settings: read-out: Stability
[2] = Metabolic stability in rat liver microsomes assessed as compound remaining measured at 10 mins; format: ADME; settings: read-out: Stability
[3] = biological target: T1, Stearoyl-CoA desaturase (Homo sapiens, UniProt O00767); assay: Inhibition of SCD1 in human A431 cells assessed as [13C]-palmitic acid conversion to [13C]-palmitoleic acid after 4 hrs by LC/MS analysis; format: cell-based, A-431
T1 sequence (O00767 whole entry): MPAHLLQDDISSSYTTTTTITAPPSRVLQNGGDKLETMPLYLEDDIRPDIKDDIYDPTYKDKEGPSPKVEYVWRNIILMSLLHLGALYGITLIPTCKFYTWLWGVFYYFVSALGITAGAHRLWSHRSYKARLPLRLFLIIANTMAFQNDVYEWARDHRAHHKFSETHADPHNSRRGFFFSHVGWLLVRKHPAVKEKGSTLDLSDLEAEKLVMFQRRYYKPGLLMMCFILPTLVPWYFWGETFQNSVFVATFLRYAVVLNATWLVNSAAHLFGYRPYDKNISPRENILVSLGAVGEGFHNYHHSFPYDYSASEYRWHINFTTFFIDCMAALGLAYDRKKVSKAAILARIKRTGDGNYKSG

[4] = biological target: T2, Acyl-CoA desaturase 1 (Rattus norvegicus, UniProt P07308); assay: Inhibition of SCD1 in Sprague-Dawley rat liver microsomes using stearoyl-[9,10-3H]-CoA as substrate
T2 sequence (P07308 whole entry): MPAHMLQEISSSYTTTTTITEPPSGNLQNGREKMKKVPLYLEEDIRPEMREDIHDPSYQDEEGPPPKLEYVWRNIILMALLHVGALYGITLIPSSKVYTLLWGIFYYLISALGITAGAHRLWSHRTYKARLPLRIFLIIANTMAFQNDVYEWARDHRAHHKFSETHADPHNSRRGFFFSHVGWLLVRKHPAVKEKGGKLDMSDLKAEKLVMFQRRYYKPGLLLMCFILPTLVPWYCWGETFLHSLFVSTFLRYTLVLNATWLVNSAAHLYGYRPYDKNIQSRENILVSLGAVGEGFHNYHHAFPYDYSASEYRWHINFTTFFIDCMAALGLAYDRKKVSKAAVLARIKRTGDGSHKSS

[5] = test system: Mus musculus; assay: Antiobesity activity in diet-induced obese C57BL/6 mouse assessed as change in body weight at 30 mg/kg, po qd for 10 days (reference value: 2.8 +/- 0.3 g); format: functional
[6] = test system: Rattus norvegicus; assay: Antiobesity activity in Zucker fa/fa rat assessed as effect on body weight gain at 3 mg/kg measured on day 26 (reference value: 161 +/- 8 g); format: functional
[7] = test system: Rattus norvegicus; assay: Antiobesity activity in Zucker fa/fa rat assessed as effect on body weight gain at 3 mg/kg measured on day 8 (reference value: 61 +/- 7 g); format: functional
[8] = species on record: Rattus norvegicus; assay: Antiobesity activity in Zucker fa/fa rat assessed as decrease in C18:1 to C18:0 plasma desaturation index after 26 days; format: functional, organism-based
[9] = Oral bioavailability in Zucker fa/fa rat at 10 mg/kg; format: ADME, organism-based; settings: in vivo
[10] = test system: Rattus norvegicus; assay: Antiobesity activity in Zucker fa/fa rat assessed as reduction in body weight gain at 10 mg/kg after 26 days relative to control; format: functional; parameters: scale not given: the % may be the effect or the level left
[11] = species on record: Rattus norvegicus; assay: Antiobesity activity in Zucker fa/fa rat assessed as reduction in body weight gain after 26 days; format: functional, organism-based
[12] = Cmax in Zucker fa/fa rat at 10 mg/kg, po; format: ADME, organism-based; parameters: dose 10 mg/kg, route oral; settings: in vivo
[13] = test system: Rattus norvegicus; assay: Antiobesity activity in Zucker fa/fa rat assessed as effect on body weight gain at 10 mg/kg measured on day 15 (reference value: 103 +/- 4 g); format: functional
[14] = test system: Mus musculus; assay: Toxicity in diet-induced obese C57BL/6 mouse assessed as narrow eye fissure at 30 mg/kg, po; format: organism-based; parameters: dose 30 mg/kg, route oral; settings: in vivo
[15] = Clearance in Sprague-Dawley rat at 2 mg/kg, iv; format: ADME, organism-based; parameters: dose 2 mg/kg, route intravenous; settings: in vivo
[16] = test system: Rattus norvegicus; assay: Hepatotoxicity in Zucker fa/fa rat assessed as increase in ALT level at 1 to 10 mg/kg; format: toxicity, organism-based; parameters: dose 1-10 mg/kg; settings: in vivo
[17] = Volume of distribution in Sprague-Dawley rat at 2 mg/kg, iv; format: ADME, organism-based; parameters: dose 2 mg/kg, route intravenous; settings: in vivo
[18] = test system: Rattus norvegicus; assay: Antiobesity activity in Zucker fa/fa rat assessed as effect on body weight gain at 10 mg/kg measured on day 26 (reference value: 161 +/- 8 g); format: functional
[19] = test system: Rattus norvegicus; assay: Antiobesity activity in Zucker fa/fa rat assessed as reduction in body weight gain at 3 mg/kg after 26 days relative to control; format: functional; parameters: scale not given: the % may be the effect or the level left
[20] = test system: Rattus norvegicus; assay: Antiobesity activity in Zucker fa/fa rat assessed as C16:1 to C16:0 plasma desaturation index at 3 mg/kg after 26 days (reference value: 0.183 +/- 0.012); format: functional
[21] = test system: Rattus norvegicus; assay: Antiobesity activity in Zucker fa/fa rat assessed as effect on body weight gain at 1 mg/kg measured on day 22 (reference value: 142 +/- 4 g); format: functional
[22] = test system: Rattus norvegicus; assay: Antiobesity activity in Zucker fa/fa rat assessed as effect on body weight gain at 1 mg/kg measured on day 26 (reference value: 161 +/- 8 g); format: functional
[23] = test system: Rattus norvegicus; assay: Toxicity in Zucker fa/fa rat assessed as reduction in food intake at 10 mg/kg after 22 days relative to control; format: organism-based; parameters: dose 10 mg/kg; scale not given: the % may be the effect or the level left; settings: in vivo, 528 h
[24] = AUC (24 hrs) in Zucker fa/fa rat at 10 mg/kg, po; format: ADME, organism-based; parameters: time < 24 hr, dose 10 mg/kg, route oral; settings: plasma
[25] = test system: Rattus norvegicus; assay: Antiobesity activity in Zucker fa/fa rat assessed as effect on body weight gain at 10 mg/kg measured on day 8 (reference value: 61 +/- 7 g); format: functional
[26] = test system: Rattus norvegicus; assay: Toxicity in Zucker fa/fa rat assessed as narrow eye fissure at 10 mg/kg; format: organism-based; parameters: dose 10 mg/kg; settings: in vivo
[27] = Cmax in Sprague-Dawley rat at 10 mg/kg, po; format: ADME, organism-based; parameters: dose 10 mg/kg, route oral; settings: in vivo
[28] = test system: Rattus norvegicus; assay: Antiobesity activity in Zucker fa/fa rat assessed as effect on body weight gain at 1 mg/kg measured on day 8 (reference value: 61 +/- 7 g); format: functional
[29] = test system: Rattus norvegicus; assay: Antiobesity activity in Zucker fa/fa rat assessed as effect on body weight gain at 3 mg/kg measured on day 15 (reference value: 103 +/- 4 g); format: functional
[30] = AUC (24 hrs) in Sprague-Dawley rat at 10 mg/kg, po; format: ADME, organism-based; parameters: time < 24 hr, dose 10 mg/kg, route oral; settings: plasma
[31] = test system: Rattus norvegicus; assay: Antiobesity activity in Zucker fa/fa rat assessed as C16:1 to C16:0 plasma desaturation index at 10 mg/kg after 26 days (reference value: 0.183 +/- 0.012); format: functional
[32] = test system: Rattus norvegicus; assay: Hepatotoxicity in Zucker fa/fa rat assessed as increase in AST level at 1 to 10 mg/kg; format: toxicity, organism-based; parameters: dose 1-10 mg/kg; settings: in vivo
[33] = test system: Rattus norvegicus; assay: Antiobesity activity in Zucker fa/fa rat assessed as C18:1 to C18:0 plasma desaturation index at 10 mg/kg after 26 days (reference value: 2.16 +/- 0.07); format: functional
[34] = test system: Rattus norvegicus; assay: Toxicity in Zucker fa/fa rat assessed as change in food intake at 1 to 3 mg/kg after 26 days; format: organism-based; parameters: dose 1-3 mg/kg; settings: in vivo, 624 h
[35] = Oral bioavailability in Sprague-Dawley rat at 10 mg/kg; format: ADME, organism-based; settings: in vivo
[36] = test system: Rattus norvegicus; assay: Antiobesity activity in Zucker fa/fa rat assessed as effect on body weight gain at 10 mg/kg measured on day 22 (reference value: 142 +/- 4 g); format: functional
[37] = test system: Rattus norvegicus; assay: Antiobesity activity in Zucker fa/fa rat assessed as effect on body weight gain at 3 mg/kg measured on day 22 (reference value: 142 +/- 4 g); format: functional
[38] = test system: Rattus norvegicus; assay: Antiobesity activity in Zucker fa/fa rat assessed as effect on body weight gain at 1 mg/kg measured on day 15 (reference value: 103 +/- 4 g); format: functional
[39] = test system: Rattus norvegicus; assay: Antiobesity activity in Zucker fa/fa rat assessed as reduction in body weight gain at 1 mg/kg after 26 days relative to control; format: functional; parameters: scale not given: the % may be the effect or the level left
[40] = species on record: Rattus norvegicus; assay: Antiobesity activity in Zucker fa/fa rat assessed as decrease in C16:1 to C16:0 plasma desaturation index after 26 days; format: functional, organism-based

CCCn1cc(-c2ccc(N3CCC(N4CCc5ccc(F)cc54)CC3)nn2)cn1
remaining at 10 min [1]: < 50%
remaining at 10 min [2]: < 50%

CN(C)c1ccc(-c2ccc(N3CCC(N4CCc5ccc(F)cc54)CC3)nn2)cn1
IC50 [3]: 30 nM
IC50 [4]: 17 nM

Cn1cc(-c2ccc(N3CCC(n4ncc5ccc(F)cc54)CC3)nn2)cn1
Activity [5]: -3.3 g
IC50 [3]: 51 nM

Cc1ccc(-c2ccc(N3CCC(N4CCc5ccc(F)cc54)CC3)nn2)cn1
IC50 [4]: 13 nM

Cc1cnc(-c2ccc(N3CCC(N4CCc5ccc(F)cc54)CC3)nn2)s1
IC50 [3]: 12 nM

OCc1ccc(-c2ccc(N3CCC(N4CCc5ccc(F)cc54)CC3)nn2)cn1
Activity [5]: -2.2 g

OCCn1cc(-c2ccc(N3CCC(N4CCc5ccc(F)cc54)CC3)nn2)cn1
Activity [5]: 0.5 g
IC50 [4]: 22 nM

OCc1cnn(-c2ccc(N3CCC(N4CCc5ccc(F)cc54)CC3)nn2)c1
Activity [5]: 1.2 g
IC50 [3]: 6 nM
IC50 [4]: 17 nM

Cn1cc(-c2ccc(N3CCC(N4CCc5ccc(F)cc54)CC3)nn2)cn1
Activity [6]: 125 g
Activity [7]: 44 g
Activity [8]: Dose-dependent effect
bioavailability [9]: 11%
Activity [10]: 51%
Activity [11]: Dose-dependent effect
Cmax [12]: 1600 ng/mL
Activity [13]: 57 g
Activity [5]: -2.1 g
Activity [14]: Toxic
clearance [15]: 3.3 mL/min/kg
Activity [16]: Non-toxic
Vd [17]: 0.52 L/kg
Activity [18]: 78 g
Activity [19]: 22%
Activity [20]: 0.088
Activity [21]: 116 g
Activity [22]: 133 g
Activity [23]: 10%
AUC at 24 h [24]: 10800 ng·h/mL
Activity [25]: 29 g
Activity [26]: Toxic
Cmax [27]: 4400 ng/mL
Activity [28]: 42 g
Activity [29]: 80 g
AUC at 24 h [30]: 38800 ng·h/mL
Activity [31]: 0.078
Activity [32]: Non-toxic
Activity [33]: 0.92
Activity [34]: Non-toxic
bioavailability [35]: 105%
Activity [36]: 72 g
Activity [37]: 112 g
Activity [38]: 80 g
Activity [39]: 17%
Activity [40]: Dose-dependent effect

CCOCCn1cc(-c2ccc(N3CCC(N4CCc5ccc(F)cc54)CC3)nn2)cn1
remaining at 10 min [1]: < 50%
remaining at 10 min [2]: < 50%

CCOc1cnn(-c2ccc(N3CCC(N4CCc5ccc(F)cc54)CC3)nn2)c1
IC50 [3]: 9 nM
remaining at 10 min [1]: < 50%
IC50 [4]: 8 nM
remaining at 10 min [2]: < 50%

Cc1ccc(-c2ccc(N3CCC(N4CCc5ccc(F)cc54)CC3)nn2)cc1
IC50 [3]: 11 nM

CCn1cc(-c2ccc(N3CCC(N4CCc5ccc(F)cc54)CC3)nn2)cn1
IC50 [3]: 30 nM
